Data set [1] deals with T1, OATP1B3 (Homo sapiens, UniProt Q9NPD5).
Data set [2] concerns primary rat hepatocytes.
In data set [3] the test system is primary rat hepatocytes. The source holds these as a separate data set.
The target of data set [4] is T2, OATP1B1 (Homo sapiens, UniProt Q9Y6L6).
T2 sequence (Q9Y6L6 1-691): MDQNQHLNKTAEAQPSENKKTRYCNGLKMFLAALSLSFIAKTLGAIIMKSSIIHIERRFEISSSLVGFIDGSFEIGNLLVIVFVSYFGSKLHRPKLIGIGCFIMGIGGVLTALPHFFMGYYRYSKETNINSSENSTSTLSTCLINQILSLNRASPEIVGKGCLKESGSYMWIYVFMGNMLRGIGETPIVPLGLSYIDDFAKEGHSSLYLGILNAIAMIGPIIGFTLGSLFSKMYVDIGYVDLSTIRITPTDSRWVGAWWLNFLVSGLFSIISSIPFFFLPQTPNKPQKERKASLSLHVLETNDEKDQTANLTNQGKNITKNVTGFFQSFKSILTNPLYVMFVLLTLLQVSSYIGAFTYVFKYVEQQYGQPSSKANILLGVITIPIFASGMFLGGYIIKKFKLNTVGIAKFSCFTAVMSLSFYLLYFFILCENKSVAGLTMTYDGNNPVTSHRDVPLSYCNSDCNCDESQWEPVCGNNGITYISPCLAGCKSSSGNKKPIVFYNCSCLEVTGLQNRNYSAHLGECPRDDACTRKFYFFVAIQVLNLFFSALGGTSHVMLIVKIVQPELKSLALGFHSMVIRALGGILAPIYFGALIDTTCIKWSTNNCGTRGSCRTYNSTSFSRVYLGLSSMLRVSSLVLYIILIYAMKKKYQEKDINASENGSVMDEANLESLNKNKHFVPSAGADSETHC

In data set [5] the test system is primary rat hepatocytes. The following applies: 50 µM.
The target of data set [6] is T1, OATP1B3. The following applies: read-out: Ki for inhibition of sodium fluorescein accumulation, OATP1B3; competitive; inhibitor 10 min before, 3 min co-incubation; ± s.e. of the estimate; R2 0.91.
For data set [7], the target named is T2, OATP1B1. In words: Sodium fluorescein accumulation in OATP1B1-transfected HEK293T cells. The following applies: read-out: Ki for inhibition of sodium fluorescein accumulation, OATP1B1; competitive; inhibitor 10 min before, 3 min co-incubation; ± s.e. of the estimate; R2 0.79.
The target of data set [8] is T1, OATP1B3. As to the kind of experiment: in vitro.
Data set [9] addresses T2, OATP1B1. The following applies: cited from earlier work.
The target in data set [10] is T1, OATP1B3. Particulars: cited from earlier work.
Substrate in data set [11]: O=C1OC2(c3ccc(O)cc3Oc3cc(O)ccc32)c2ccccc21
In words: cells, lysate or membranes. Particulars: other: ± s.e. of the estimate.

Like-named read-outs stand apart in the source and are kept apart here.

These results are taken from publication PMC3989234, “Introduction of Aromatic Ring-Containing Substituents in Cyclic Nucleotides Is Associated with Inhibition of Toxin Uptake by the Hepatocyte Transporters OATP 1B1 and 1B3” (PLoS ONE, 2014).

T1 sequence (Q9NPD5 whole entry): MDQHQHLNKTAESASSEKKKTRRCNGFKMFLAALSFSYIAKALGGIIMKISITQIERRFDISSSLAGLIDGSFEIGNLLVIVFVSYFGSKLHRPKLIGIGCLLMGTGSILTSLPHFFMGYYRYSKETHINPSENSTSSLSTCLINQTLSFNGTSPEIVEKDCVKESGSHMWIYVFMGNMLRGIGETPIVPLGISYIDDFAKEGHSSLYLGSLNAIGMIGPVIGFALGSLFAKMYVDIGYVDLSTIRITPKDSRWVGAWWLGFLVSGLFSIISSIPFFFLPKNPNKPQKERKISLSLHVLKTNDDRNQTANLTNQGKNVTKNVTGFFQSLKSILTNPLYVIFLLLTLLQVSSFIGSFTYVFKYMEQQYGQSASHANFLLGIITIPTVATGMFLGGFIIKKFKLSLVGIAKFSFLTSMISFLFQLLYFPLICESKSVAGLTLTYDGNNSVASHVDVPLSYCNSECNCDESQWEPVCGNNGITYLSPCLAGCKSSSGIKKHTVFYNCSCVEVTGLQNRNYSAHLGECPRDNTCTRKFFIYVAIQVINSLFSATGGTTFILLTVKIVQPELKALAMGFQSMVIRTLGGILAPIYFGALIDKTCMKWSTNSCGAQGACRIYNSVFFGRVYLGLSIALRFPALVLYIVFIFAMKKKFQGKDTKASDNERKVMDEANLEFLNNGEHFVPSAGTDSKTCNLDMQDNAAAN

For the molecule `CO[C@H]1C2OP(O)(=S)OC[C@H]2O[C@H]1n1c(Sc2ccc(Cl)cc2)nc2c(N)ncnc21` (single isomer, unassigned) [Sp-8-pCPT-2′-O-Me-cAMPS, 8-(4-Chlorophenylthio)-2′-O-methyladenosine-3′, 5′-cyclic monophosphorothioate, Sp- isomer], at OATP1B3 [1], it took 8.7 µM to reach half-maximal inhibition (IC50) and the Ki is 2.33 µM. Also, the “Effect on Nod-induced hepatocyte apoptosis (Fig. 2A)” value in the data set on primary rat hepatocytes [2] is recorded as “clear inhibition”. In addition, the “Effect on [3H]-Nod accumulation in hepatocytes” value in the data set with primary rat hepatocytes [3] is “almost completely inhibited”. At OATP1B1 [4], the midpoint of inhibition, the IC50, lay at 19.9 µM and affinity was put at a Ki of 6.63 µM. The “Effect on [14C]-glycocholic acid accumulation in hepatocytes” value with primary rat hepatocytes [5] was “almost completely inhibited”.
Take `CO[C@@H]1[C@@H]2OP(=O)(O)OC[C@H]2O[C@H]1n1c(Sc2ccc(Cl)cc2)nc2c(N)ncnc21` [8-pCPT-2′-O-Me-cAMP, 8-(4-Chlorophenylthio)-2′-O-methyladenosine-3′, 5′-cyclic monophosphate]: on OATP1B3 [1], the “Effect on Nod-induced apoptosis / Nod transport, OATP1B3-transfected HEK293T cells” value is “abolished”; the midpoint of inhibition, the IC50, lay at 12.6 µM; the affinity corresponds to a Ki of 3.38 µM. Also, in the data set on primary rat hepatocytes [2], the “Effect on Nod-induced hepatocyte apoptosis (Fig. 1A)” value is given as “inhibited completely apoptotic morphology” and the “Effect on Nod-induced hepatocyte apoptosis (Fig. 2A)” value is listed as “clear inhibition”. The “Effect on [3H]-Nod accumulation in hepatocytes” value with primary rat hepatocytes [3] is “almost completely inhibited”. Further, at OATP1B1 [4], the “Effect on Nod-induced apoptosis / Nod transport, OATP1B1-transfected HEK293T cells” value was “abolished”; the IC50 amounted to 46.4 µM; the Ki amounted to 15.5 µM. Moreover, the “Effect on [14C]-glycocholic acid accumulation in hepatocytes” value in the data set on primary rat hepatocytes [5] was “almost completely inhibited”. In addition, the Ki on OATP1B3 [6] was 75 ± 22 µM. For the same molecule, the Ki on OATP1B1 [7] is 46 ± 21 µM.
Take `O=C1OC2(c3ccc(O)cc3Oc3cc(O)ccc32)c2ccccc21` [fluorescein, sodium fluorescein]: the Km on OATP1B3 [8] was determined as 285 ± 134 µM.
Nostocyclopeptide-M1: the “Potency as OATP1B1 inhibitor compared with the cAMP analogs” value on OATP1B1 [9] is recorded as “more potent inhibitor”. The “Potency as OATP1B3 inhibitor compared with the cAMP analogs” value at OATP1B3 [10] is given as “more potent inhibitor”.

B1: OATP1B1 (Homo sapiens) (protein)
chain: MDQNQHLNKTAEAQPSENKKTRYCNGLKMFLAALSLSFIAKTLGAIIMKSSIIHIERRFEISSSLVGFIDGSFEIGNLLVIVFVSYFGSKLHRPKLIGIGCFIMGIGGVLTALPHFFMGYYRYSKETNINSSENSTSTLSTCLINQILSLNRASPEIVGKGCLKESGSYMWIYVFMGNMLRGIGETPIVPLGLSYIDDFAKEGHSSLYLGILNAIAMIGPIIGFTLGSLFSKMYVDIGYVDLSTIRITPTDSRWVGAWWLNFLVSGLFSIISSIPFFFLPQTPNKPQKERKASLSLHVLETNDEKDQTANLTNQGKNITKNVTGFFQSFKSILTNPLYVMFVLLTLLQVSSYIGAFTYVFKYVEQQYGQPSSKANILLGVITIPIFASGMFLGGYIIKKFKLNTVGIAKFSCFTAVMSLSFYLLYFFILCENKSVAGLTMTYDGNNPVTSHRDVPLSYCNSDCNCDESQWEPVCGNNGITYISPCLAGCKSSSGNKKPIVFYNCSCLEVTGLQNRNYSAHLGECPRDDACTRKFYFFVAIQVLNLFFSALGGTSHVMLIVKIVQPELKSLALGFHSMVIRALGGILAPIYFGALIDTTCIKWSTNNCGTRGSCRTYNSTSFSRVYLGLSSMLRVSSLVLYIILIYAMKKKYQEKDINASENGSVMDEANLESLNKNKHFVPSAGADSETHC
For B1, the Km in data set [11] was 402 ± 140 µM.

Usually IC50 stands for the concentration that gives 50% inhibition. Low readings indicate greater potency in that assay, high ones weaker potency in that assay. Broadly, the Ki is the dissociation constant of the complex between target and ligand, obtained from inhibition or displacement. For orientation: Km means the substrate concentration at which the rate is half of its maximum.
